Laboratory results published in ChEMBL document CHEMBL1121591, “Synthesis and antitumor activity of 2,4-diamino-6-(2,5-dimethoxybenzyl)-5-methylpyrido[2,3-d]pyrimidine” (1980).

Experiments:
Type in all cases: functional
[1] = tested on: L1210; test: Cytotoxic activity against the L1210 cell cultures; conditions: Mus musculus, read-out: ED50 (the source's name)
[2] = tested on: CCRF S-180; test: Cytotoxic activity against the S180 cell cultures; conditions: Mus musculus, read-out: ED50 (the source's name)
[3] = tested on: W256; test: Cytotoxic activity against the Walker 256 carcinosarcoma in rats; conditions: Rattus norvegicus, read-out: ED50 (the source's name)

Row | Structure (SMILES) | EC50 [1] | EC50 [2] | EC50 [3]
1 | Cc1nc(N)nc(N)c1-c1ccc(Cl)c(Cl)c1 [METOPRINE] | 220 nM | 50 nM | 50 nM
2 | COc1ccc(OC)c(Cc2cnc3nc(N)nc(N)c3c2C)c1 [PIRITREXIM] | 2 nM | 12 nM | 8 nM
3 | CN(Cc1cnc2nc(N)nc(N)c2n1)c1ccc(C(=O)N[C@@H](CCC(=O)O)C(=O)O)cc1 [METHOTREXATE] | 16 nM | 16 nM | 20 nM
